Test results: US7423122B2, “N-terminal and C-terminal markers in nascent proteins” (priority 1999, dated 2008)
Values joined by “and” are separate entries in the source; they are usually repeats but may differ in a detail not shown here. Equal values may be shown once.

Experiments:
[1] = test system: rabbit red blood cells (rRBCs); assay type: cell-based
[2] = test system: E. coli T7 S30 transcription/translation extract; assay type: biochemical
[3] = test system: E. coli T7 S30 transcription/translation extract; assay type: biochemical; remark: listed apart in the source
[4] = test system: E. coli S30 translation mixtures; assay type: biochemical
α-HL = α-HL (Staphylococcus aureus, UniProt P09616)
α-hemolysin = α-hemolysin (Staphylococcus aureus, UniProt P09616)
Chain of α-hemolysin (P09616 26-319, looked up, natural form): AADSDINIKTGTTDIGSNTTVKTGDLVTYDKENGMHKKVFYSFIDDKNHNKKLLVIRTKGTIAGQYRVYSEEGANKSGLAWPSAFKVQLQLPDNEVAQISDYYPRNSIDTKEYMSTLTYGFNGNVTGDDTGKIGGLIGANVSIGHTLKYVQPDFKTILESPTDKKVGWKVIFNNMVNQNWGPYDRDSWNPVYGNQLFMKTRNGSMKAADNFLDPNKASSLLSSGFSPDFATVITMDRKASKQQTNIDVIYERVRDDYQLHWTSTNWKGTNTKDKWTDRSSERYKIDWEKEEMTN

Chain of α-HL (P09616 26-319, looked up, natural form): as above

For α-Hemolysin, the α-Hemolysin activity [1] was 0.085 OD415 nm/μl and 0.083 OD415 nm/μl and the “earliest time of band detection after initiation of incubation” value [2] was 5 min.

In the case of “4,4-difluoro-5,7-dimethyl-4-bora-3a, 4a-diaza-s-indacene propionic acid, sulfosuccinimidyl ester [BODIPY-FL, SSE]”, the “level of fluorescence of HL band compared to non-sulfonated form” value [3] is reported as “approximately 2 times”.

`COc1ccc(-c2cnc(-c3cc[n+](Cc4cccc(C(=O)ON5C(=O)CCC5=O)c4)cc3)o2)cc1` [PyMPO, 1-(3-(succinimidyloxycarbonyl)benzyl)-4-(5-(4-methoxyphenyl)oxazol-2-yl) pyridininium bromide] was tested, and the “reduction in fluorescence compared with BODIPY-FL” value [3] was “approximately an order of magnitude reduction in fluorescence”.

With `Cc1c(CC(=O)ON2C(=O)CC(S(=O)(=O)O)C2=O)c(=O)oc2cc(N)ccc12` (stereo not drawn) [AMCA-sulfo-NHS, sulfosuccinimidyl 7-amino-4-methylcoumarin-3-acetate] the “detectability / incorporation of fluorescent α-HL bands” value (from here on “detectability / incorporation”) [4] was “easily detectable bands”.

With “5-(and-6)-carboxyfluorescein, succinimidyl-ester [Fluorescein (FAM)]” the “fluorescence of α-HL band relative to BODIPY-FL-SSE” value [3] was 8.4%.

With “6-(tetramethylrhodamine-5-(and-6)-carboxamido)hexanoic acid, succinimidyl ester [5/6-TAMRA]” the “fluorescence of α-HL band relative to BODIPY-FL-SSE” value [3] was 35%.

For “6-(fluorescein-5-(and-6) carboxamido)hexanoic acid, succinimidyl ester [Fluorescein (SFX)]”, the “fluorescence of α-HL band relative to BODIPY-FL-SSE” value [3] was 4.6%.

For “succinimidyl 7-amino-methyl-amino-coumarin acetate [AMCA-NHS]”, the “detectability / incorporation” value [4] was “very low levels of detectable fluorescent bands”.

With Alexa 350-N-hydroxy-succinimide ester the “detectability / incorporation” value [4] was “seems to not incorporate as well as its neutral counterpart”.

With “4,4-difluoro-5,7-dimethyl-4-bora-3a,4a-diaza-s-indacene [BODIPY-FL]” the “molar ratio of incorporated BODIPY-FL to protein” value (α-HL) was 0.29+/−0.03%, the “amount of alpha-hemolysin detectable” value (α-hemolysin) was “Approximately 10 ng” and the “amount of protein detectable” value (α-hemolysin) was 0.3 ng. For the same compound, the “amount of α-hemolysin detectable” value (α-hemolysin) was 0.35-0.5 nanograms and the “smallest volume of original reaction mixture giving detectable α-HL band” value (α-hemolysin) was 0.007 µL.
